This note sets out measurements from patent US12139478B2, “Compounds, compositions and methods” (Denali Therapeutics Inc., priority 2017, dated 2024).

This assay deals with ATF4 translation. As to the kind of experiment: ATF4 Nano Luciferase reporter integrated stress response (ISR) assay in H4 ATF4-NLuc cells. To be noted: Homo sapiens, 0.5 h, H4 ATF4-NLuc (clone 17) cells, compound 30 minutes, then sodium arsenite for 6 additional hours, luminescence readout. It counts as cell-based, human. An excerpt: Cellular stress leads to activation of the integrated stress response pathway through one of four eukaryotic initiation factor 2a kinases and halts global translation, while allowing for the translation of select transcripts like ATF4 (activating transcription factor 4) that are important for the response to cellular stress. During normal conditions, small open reading frames (ORFs) in the 5′ UTR of ATF4 occupy the ribosome and prevent translation of the coding sequence of ATF4. During stress conditions however, the ribosome scans past these upstream ORFs and preferentially begins translation at the coding sequence of ATF4. In this way, the translation, and thus protein level of ATF4 is a readout of ISR pathway activation. Thus, a fusion of the uORFs and the beginning of the coding sequence of ATF to a common cellular reporter like nano-luciferase allows for a sensitive and high-throughput readout of ISR pathway activity.
Compounds as provided herein were tested in the following assay. The ATF4 Nano Luciferase reporter was constructed by fusing the human full length 5′ untranslated region (5′-UTR) and a small portion of the coding sequence of the ATF4 gene upstream of the Nano Luciferase (NLuc) coding sequence lacking it's start codon. Specifically, nucleotides +1 through +364 (relative to the transcriptional start site) of ATF4 transcript variant 2 (NCBI NM_182810.2) flanked 5′ by EcoRI and 3′ by BamHI restriction enzyme sites were synthesized and cloned into the EcoRI/BamHI cloning sites of pLVX-EF1a-IRES-Puro lentivirus vector (Clontech). Lentiviral particles were produced with Lenti-X single shots (VSV-G, Clontech) according to the manufacturer's instructions and used to transduce a human H4 neuroglioma cell line (ATCC HTB-148). H4 cells were selected with 1.25 μg/mL Puromycin, and clonal cell lines generated by limiting dilution. We utilized this cell line to generate an integrated stress response (ISR) assay to evaluate the activity of ISR pathway inhibitors via luminescence readout. The H4 ATF4-NLuc (clone 17) cell line is plated at a density of […] in 96-well or 384-well respectively in DMEM+[…]. 24-hours later test compounds diluted in dimethyl sulfoxide (DMSO) are added for 30 minutes at 37° C., followed by ISR pathway activation with […] sodium arsenite aqueous solution for 6 additional hours. Nano Glo luciferase reagent (N1150, Promega) is added according to manufacturer instructions and the luminescence signal (corresponding to the level of ATF4 translation and thus ISR pathway activation) is read with a standard plate reader with luminescence detection capabilities. […] In the tables below, activity of the tested compounds is provided, and in Table 3 as follows: […]; ++=IC50 1-10 μM; +=IC50>10 μM.
In general terms: A reporter such as luciferase makes a cellular process visible.

Where [1] appears, read: read-out: Biological Example 1 (ATF4 translation, IC50 nM).

Like-named read-outs stand apart in the source and are kept apart here.

As to `O=C(COc1ccc(C(F)(F)F)nc1)N[C@@H]1CC[C@@H](c2nnc([C@H]3C[C@@H](OC(F)(F)F)C3)o2)OC1` [Example 39, N-[(3R,6S)-6-[5-[3-cis-(trifluoromethoxy)cyclobutyl]-1,3,4-oxadiazol-2-yl]tetrahydropyran-3-yl]-2-[[6-(trifluoromethyl)-3-pyridyl]oxy]acetamide], the IC50 runs as follows: (read-out: Activity) less than 1000 nM; under setting [1], 36 nM. Turning to `O=C(COc1ccc(C(F)(F)F)cc1)N[C@@H]1CC[C@@H](c2nnc([C@H]3C[C@@H](OC(F)(F)F)C3)o2)OC1` [Example 40, N-[(3R,6S)-6-[5-[3-cis-(trifluoromethoxy)cyclobutyl]-1,3,4-oxadiazol-2-yl]tetrahydropyran-3-yl]-2-[4-(trifluoromethyl)phenoxy]acetamide], the IC50 reads like this: (read-out: Activity) less than 1000 nM; under setting [1], 2.4 nM. As for `O=C(COc1ccc(Cl)cc1)N[C@H]1CO[C@H](c2nnc([C@H]3C[C@@H](OC(F)(F)F)C3)o2)CC1(F)F` [Example 41, N-[(3S,6S)-4,4-difluoro-6-[5-[3-cis-(trifluoromethoxy)cyclobutyl]-1,3,4-oxadiazol-2-yl]tetrahydropyran-3-yl]-2-(4-chlorophenoxy)acetamide], the IC50 is less than 1000 nM (read-out: Activity) and 13.5 nM under setting [1]. Take `O=C(N[C@@H]1CC[C@@H](c2nnc(C3CC(OC(F)(F)F)C3)o2)OC1)c1cn2ccc(Br)cc2n1` (stereo partly drawn) [Example 42, 7-bromo-N-((3R,6S)-6-(5-(3-cis-(trifluoromethoxy)cyclobutyl)-1,3,4-oxadiazol-2-yl)tetrahydro-2H-pyran-3-yl)imidazo[1,2-a]pyridine-2-carboxamide]: under “read-out: Activity”, the IC50 is less than 1000 nM. Turning to `O=C(N[C@@H]1CC[C@@H](c2nnc(C3CC(OC(F)(F)F)C3)o2)OC1)c1nc2cc(Cl)ccc2s1` (stereo partly drawn) [Example 43, 5-chloro-N-((3R,6S)-6-(5-(3-cis-(trifluoromethoxy)cyclobutyl)-1,3,4-oxadiazol-2-yl)tetrahydro-2H-pyran-3-yl)benzo[d]thiazole-2-carboxamide], under “read-out: Activity”, the IC50 was less than 1000 nM. Same read-out and setting: in the case of `O=C(N[C@@H]1CC[C@@H](c2nnc(C3CC(OC(F)(F)F)C3)o2)OC1)c1cc2ccc(Cl)cc2cn1` (stereo partly drawn) [Example 44, 7-chloro-N-((3R,6S)-6-(5-(3-cis-(trifluoromethoxy)cyclobutyl)-1,3,4-oxadiazol-2-yl)tetrahydro-2H-pyran-3-yl)isoquinoline-3-carboxamide] it was less than 1000 nM; in that of `O=C(N[C@@H]1CC[C@@H](c2nnc(C3CC(OC(F)(F)F)C3)o2)OC1)C1CCc2cc(Cl)ccc2O1` (stereo partly drawn) [Example 45], less than 1000 nM; in that of `O=C(COc1ccc(Cl)cc1)N[C@@H]1CC[C@@H](C(O)COC2CC(OC(F)(F)F)C2)OC1` (stereo partly drawn) [Example 46], less than 1000 nM.

Consider `O=C(COC1CC(OC(F)(F)F)C1)NC12CCC(c3cc(-c4ccc(Cl)c(F)c4)no3)(CC1)OC2` (stereo not drawn) [Example 47], for which, for the setting “read-out: Activity”, the IC50 was less than 1000 nM. Same read-out and setting: in the case of `O=C(COC1CC(OC(F)(F)F)C1)NC12CCC(c3cnn(-c4ccc(Cl)c(F)c4)c3)(CC1)OC2` (stereo not drawn) [Example 48] it was less than 1000 nM. On to `O=C(COC1CC(OC(F)(F)F)C1)NC12CCC(C3CC(c4ccc(Cl)c(F)c4)=NO3)(CC1)OC2` (stereo not drawn) [Example 49], for which the IC50 (read-out: Activity) was more than 10000 nM. With `O=C(COC1CC(OC(F)(F)F)C1)N[C@@H]1CC[C@@H](c2cc(-c3ccc(Cl)c(F)c3)no2)OC1` (stereo partly drawn) [Example 50], the IC50 is, setting by setting: (read-out: Activity) less than 1000 nM; under setting [1], 38 nM. Turning to `O=C(N[C@@H]1CC[C@@H](c2nnc(C3CC(OC(F)(F)F)C3)o2)OC1)N1CCC(OC(F)(F)F)C1` (stereo partly drawn) [Example 51], the IC50 (read-out: Activity) is less than 1000 nM. As to `O=C(COC1CC(OC(F)(F)F)C1)N[C@@H]1CC[C@@H](c2ccn(-c3ccc(Cl)cc3)n2)OC1` (stereo partly drawn) [Example 52], the IC50 runs as follows: (read-out: Activity) less than 1000 nM; under setting [1], 43 nM. Regarding `O=C(COc1ccc(F)cc1)N[C@@H]1CC[C@@H](c2noc(C3CC(OC(F)(F)F)C3)n2)OC1` (stereo partly drawn) [Example 53], the IC50 (read-out: Activity) is less than 1000 nM. Take `O=C(COC1CC(OC(F)(F)F)C1)N[C@@H]1CC[C@@H](c2cc(-c3ccc(Cl)cc3)no2)OC1` (stereo partly drawn) [Example 54]: for the setting “read-out: Activity”, the IC50 was less than 1000 nM. Turning to `O=C(COc1ccc(Cl)c(F)c1)N[C@@H]1CC[C@@H](c2nnc(COC(F)(F)F)o2)OC1` [Example 55], the IC50 under setting [1] is 22.7 nM.

For `O=C(N[C@@H]1CC[C@@H](c2nnc(C3CC(OC(F)(F)F)C3)o2)OC1)c1ccc2cc(Cl)ccc2n1` (stereo partly drawn) [Example 56, 6-chloro-N-[(3R,6S)-6-[5-[3-cis-(trifluoromethoxy)cyclobutyl]-1,3,4-oxadiazol-2-yl]tetrahydropyran-3-yl]quinoline-2-carboxamide], the IC50 (read-out: Activity) was less than 1000 nM.

For `O=C(N[C@@H]1CC[C@@H](c2nnc(C3CC(OC(F)(F)F)C3)o2)OC1)c1ccc2cc(F)ccc2n1` (stereo partly drawn) [Example 57, 6-fluoro-N-((3R,6S)-6-(5-(3-cis-(trifluoromethoxy)cyclobutyl)-1,3,4-oxadiazol-2-yl)tetrahydro-2H-pyran-3-yl)quinoline-2-carboxamide], for the setting “read-out: Activity”, the IC50 was less than 1000 nM.

As for `O=C(COc1ccc(Cl)c(F)c1)N[C@@H]1CC[C@@H](c2nc([C@H]3C[C@@H](OC(F)(F)F)C3)no2)OC1` [Example 58, 2-(4-chloro-3-fluorophenoxy)-N-((3R,6S)-6-(3-(3-cis-(trifluoromethoxy)cyclobutyl)-1,2,4-oxadiazol-5-yl)tetrahydro-2H-pyran-3-yl)acetamide], the IC50 is less than 1000 nM (read-out: Activity) and 3.7 nM under setting [1]. Turning to `O=C(N[C@H]1CO[C@H](c2nnc(C3CC(OC(F)(F)F)C3)o2)CC1(F)F)c1ccc2cc(F)ccc2n1` (stereo partly drawn) [Example 59, N-((3S,6S)-4,4-difluoro-6-(5-(3-cis-(trifluoromethoxy)cyclobutyl)-1,3,4-oxadiazol-2-yl)tetrahydro-2H-pyran-3-yl)-6-fluoroquinoline-2-carboxamide], the IC50 (read-out: Activity) is less than 1000 nM. Regarding `O=C(N[C@@H]1CC[C@@H](c2nnc(C3CC(OC(F)(F)F)C3)o2)OC1)c1ccc2cc(C(F)(F)F)ccc2n1` (stereo partly drawn) [Example 60, N-((3R,6S)-6-(5-(3-cis-(trifluoromethoxy)cyclobutyl)-1,3,4-oxadiazol-2-yl)tetrahydro-2H-pyran-3-yl)-6-(trifluoromethyl)quinoline-2-carboxamide], the IC50 runs as follows: (read-out: Activity) less than 1000 nM; under setting [1], 3.5 nM. For `O=C(COc1ccc(C(F)(F)F)cc1)N[C@H]1CO[C@H](c2nnc(C3CC(OC(F)(F)F)C3)o2)CC1(F)F` (stereo partly drawn) [Example 61, N-((3S,6S)-4,4-difluoro-6-(5-(3-cis-(trifluoromethoxy)cyclobutyl)-1,3,4-oxadiazol-2-yl)tetrahydro-2H-pyran-3-yl)-2-(4-(trifluoromethyl)phenoxy)acetamide], in that order: less than 1000 nM and 14.4 nM.

As to `O=C(COc1ccc(Cl)c(F)c1)N[C@H]1CO[C@H](c2nnc(C3CC(OC(F)(F)F)C3)o2)CC1(F)F` (stereo partly drawn) [Example 62, 2-(4-chloro-3-fluorophenoxy)-N-((3S,6S)-4,4-difluoro-6-(5-(3-cis-(trifluoromethoxy)cyclobutyl)-1,3,4-oxadiazol-2-yl)tetrahydro-2H-pyran-3-yl)acetamide], the IC50 (read-out: Activity) is less than 1000 nM.

Take `O=C(N[C@@H]1CC[C@@H](c2nnc(C3CC(OC(F)(F)F)C3)o2)OC1)[C@@H]1CCc2cc(F)ccc2O1` (stereo partly drawn) [Example 66, 6-fluoro-N-((3R,6S)-6-(5-(3-cis-(trifluoromethoxy)cyclobutyl)-1,3,4-oxadiazol-2-yl)tetrahydro-2H-pyran-3-yl)chroman-2-carboxamide]: the IC50 (read-out: Activity) was less than 1000 nM.

On to `O=C(COc1ccc(Cl)cc1)N[C@H]1CO[C@H](c2nnc(C3CC(OC(F)(F)F)C3)o2)C[C@@H]1F` (stereo partly drawn) [Example 67, 2-(4-chlorophenoxy)-N-((3S,4S,6S)-4-fluoro-6-(5-(3-cis-(trifluoromethoxy)cyclobutyl)-1,3,4-oxadiazol-2-yl)tetrahydro-2H-pyran-3-yl)acetamide], for which the IC50 reads like this: (read-out: Activity) less than 1000 nM; under setting [1], 3.1 nM. On to `O=C(COc1ccc(Cl)cc1)N[C@H]1CO[C@H](c2nnc(C3CC(OC(F)(F)F)C3)o2)[C@@H](F)C1` (stereo partly drawn) [Example 68, 2-(4-chlorophenoxy)-N-((3R,5S,6R)-5-fluoro-6-(5-(3-cis-(trifluoromethoxy)cyclobutyl)-1,3,4-oxadiazol-2-yl)tetrahydro-2H-pyran-3-yl)acetamide], for which, for the setting “read-out: Activity”, the IC50 is less than 1000 nM.
